Assay results reported in ChEMBL document CHEMBL2073995, “Possible involvement of P-glycoprotein in renal excretion of pazufloxacin in rats” (Eur J Pharmacol, 2004).

Target: ATP-dependent translocase ABCB1 (Homo sapiens, UniProt P08183)
Assay: TP_TRANSPORTER: cell accumulation in K562/ADR cells
Assay type: functional, cell-based

ATP-dependent translocase ABCB1, sequence (P08183 whole entry): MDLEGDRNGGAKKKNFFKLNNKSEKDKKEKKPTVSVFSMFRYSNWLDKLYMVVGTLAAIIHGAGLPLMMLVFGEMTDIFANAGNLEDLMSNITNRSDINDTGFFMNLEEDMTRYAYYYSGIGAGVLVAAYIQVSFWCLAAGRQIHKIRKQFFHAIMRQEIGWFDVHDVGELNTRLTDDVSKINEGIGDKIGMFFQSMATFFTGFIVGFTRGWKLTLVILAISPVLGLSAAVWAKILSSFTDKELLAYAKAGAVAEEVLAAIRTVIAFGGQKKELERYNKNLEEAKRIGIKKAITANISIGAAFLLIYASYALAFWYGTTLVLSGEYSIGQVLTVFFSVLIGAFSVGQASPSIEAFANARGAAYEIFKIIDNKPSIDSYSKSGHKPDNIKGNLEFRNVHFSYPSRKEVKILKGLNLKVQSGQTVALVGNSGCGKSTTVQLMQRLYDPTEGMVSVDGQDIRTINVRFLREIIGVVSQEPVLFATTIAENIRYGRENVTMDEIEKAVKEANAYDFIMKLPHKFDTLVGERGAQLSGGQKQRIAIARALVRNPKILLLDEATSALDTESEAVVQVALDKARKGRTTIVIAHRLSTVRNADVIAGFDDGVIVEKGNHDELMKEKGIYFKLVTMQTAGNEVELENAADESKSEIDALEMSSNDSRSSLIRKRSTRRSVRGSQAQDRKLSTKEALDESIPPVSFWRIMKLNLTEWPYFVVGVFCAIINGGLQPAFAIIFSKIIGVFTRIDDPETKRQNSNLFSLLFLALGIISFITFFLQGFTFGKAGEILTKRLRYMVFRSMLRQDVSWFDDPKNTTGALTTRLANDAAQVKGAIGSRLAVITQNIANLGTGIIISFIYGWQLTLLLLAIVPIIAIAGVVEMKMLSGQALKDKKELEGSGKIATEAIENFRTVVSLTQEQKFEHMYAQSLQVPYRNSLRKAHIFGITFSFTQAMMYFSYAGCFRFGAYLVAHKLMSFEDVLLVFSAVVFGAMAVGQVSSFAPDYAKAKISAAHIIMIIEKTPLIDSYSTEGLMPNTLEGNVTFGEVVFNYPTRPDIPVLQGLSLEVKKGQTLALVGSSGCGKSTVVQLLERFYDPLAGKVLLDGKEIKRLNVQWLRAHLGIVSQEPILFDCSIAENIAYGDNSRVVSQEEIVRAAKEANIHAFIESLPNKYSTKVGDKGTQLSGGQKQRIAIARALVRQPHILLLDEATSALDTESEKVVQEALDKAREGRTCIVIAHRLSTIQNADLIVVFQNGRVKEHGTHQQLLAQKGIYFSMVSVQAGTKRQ

With `C[C@H]1COc2c(C3(N)CC3)c(F)cc3c(=O)c(C(=O)O)cn1c23` [PAZUFLOXACIN] the Activity was “substrate [+]”.
